Data on 21 molecules can be found in patent US20240101576A1, “HETEROCYCLIC INHIBITORS OF EGFR AND/OR HER2, FOR USE IN THE TREATMENT OF CANCER” (Scorpion Therapeutics, Inc., priority 2020, published 2024).

Structures are written as SMILES. pIC50: −log10 of the molar value.

Common to all, as to assay type: cell-based
One experiment deals with T1, EGFR WT (Ba/F3 cells) (Homo sapiens, UniProt P00533).
T1 construct: expressed in transfected cells; host or cells: Ba/F3 (murine pro-B cells), retroviral transduction, puromycin selection, maintained with EGF
T1 sequence (P00533 25-1210): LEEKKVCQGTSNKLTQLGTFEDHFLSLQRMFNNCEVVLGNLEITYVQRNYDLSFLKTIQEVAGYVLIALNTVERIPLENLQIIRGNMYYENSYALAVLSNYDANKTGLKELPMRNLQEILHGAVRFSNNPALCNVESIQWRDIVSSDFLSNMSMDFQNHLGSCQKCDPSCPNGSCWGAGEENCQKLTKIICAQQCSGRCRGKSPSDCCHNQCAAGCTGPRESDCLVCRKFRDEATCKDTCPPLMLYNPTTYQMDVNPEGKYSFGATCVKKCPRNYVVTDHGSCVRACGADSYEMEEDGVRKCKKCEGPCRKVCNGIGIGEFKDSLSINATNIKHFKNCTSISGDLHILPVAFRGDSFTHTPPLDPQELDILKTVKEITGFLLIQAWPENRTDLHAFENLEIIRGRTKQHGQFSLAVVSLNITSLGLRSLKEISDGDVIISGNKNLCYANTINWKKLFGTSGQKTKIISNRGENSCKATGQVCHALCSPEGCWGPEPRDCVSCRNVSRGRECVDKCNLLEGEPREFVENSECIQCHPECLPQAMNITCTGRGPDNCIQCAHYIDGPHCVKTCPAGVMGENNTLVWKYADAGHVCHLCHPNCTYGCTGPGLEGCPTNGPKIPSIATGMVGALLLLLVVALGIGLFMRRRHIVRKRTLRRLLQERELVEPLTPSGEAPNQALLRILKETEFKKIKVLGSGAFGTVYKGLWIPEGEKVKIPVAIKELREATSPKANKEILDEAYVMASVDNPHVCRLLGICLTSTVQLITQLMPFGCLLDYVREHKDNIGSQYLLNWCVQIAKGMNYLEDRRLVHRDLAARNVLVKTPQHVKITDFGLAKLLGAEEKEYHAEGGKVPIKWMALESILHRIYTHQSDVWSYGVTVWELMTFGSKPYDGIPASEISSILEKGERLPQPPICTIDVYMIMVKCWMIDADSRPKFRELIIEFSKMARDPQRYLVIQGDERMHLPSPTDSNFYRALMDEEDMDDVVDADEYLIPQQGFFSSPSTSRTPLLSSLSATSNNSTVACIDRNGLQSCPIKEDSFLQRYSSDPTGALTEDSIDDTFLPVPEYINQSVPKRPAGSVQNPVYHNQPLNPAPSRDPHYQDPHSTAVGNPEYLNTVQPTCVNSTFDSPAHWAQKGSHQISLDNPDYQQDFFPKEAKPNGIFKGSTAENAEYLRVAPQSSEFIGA
The experiment can be described thus: Inhibitor activity on EGFR-dependent cell growth (CellTiter-Glo, 72 h), Ba/F3 EGFR WT. Particulars: read-out: BaF3 WT IC50. Summed up:
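This growth assay used Ba/F3 cells that depend on wild-type EGFR and are kept in EGF without IL3. Compounds were made up as 10 mM DMSO stocks and diluted 3-fold over 10 points. 120 nL went onto 600 cells/well. After 72 hours, 40 μL CellTiter-Glo was added and luminescence read on EnVision after 30 min.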
(In ATP-based viability assays light output follows the ATP content of the culture.)

The target in experiment [1] is T2, EGFR exon 20 SVD Ins D770_N771 (Ba/F3 cells) (Homo sapiens, UniProt P00533, INS770SVD).
T2 construct: expressed in transfected cells; host or cells: Ba/F3 (murine pro-B cells), retroviral transduction, puromycin selection, IL3-independent pool
T2 sequence (P00533 with tags, fused parts or gaps INS770SVD): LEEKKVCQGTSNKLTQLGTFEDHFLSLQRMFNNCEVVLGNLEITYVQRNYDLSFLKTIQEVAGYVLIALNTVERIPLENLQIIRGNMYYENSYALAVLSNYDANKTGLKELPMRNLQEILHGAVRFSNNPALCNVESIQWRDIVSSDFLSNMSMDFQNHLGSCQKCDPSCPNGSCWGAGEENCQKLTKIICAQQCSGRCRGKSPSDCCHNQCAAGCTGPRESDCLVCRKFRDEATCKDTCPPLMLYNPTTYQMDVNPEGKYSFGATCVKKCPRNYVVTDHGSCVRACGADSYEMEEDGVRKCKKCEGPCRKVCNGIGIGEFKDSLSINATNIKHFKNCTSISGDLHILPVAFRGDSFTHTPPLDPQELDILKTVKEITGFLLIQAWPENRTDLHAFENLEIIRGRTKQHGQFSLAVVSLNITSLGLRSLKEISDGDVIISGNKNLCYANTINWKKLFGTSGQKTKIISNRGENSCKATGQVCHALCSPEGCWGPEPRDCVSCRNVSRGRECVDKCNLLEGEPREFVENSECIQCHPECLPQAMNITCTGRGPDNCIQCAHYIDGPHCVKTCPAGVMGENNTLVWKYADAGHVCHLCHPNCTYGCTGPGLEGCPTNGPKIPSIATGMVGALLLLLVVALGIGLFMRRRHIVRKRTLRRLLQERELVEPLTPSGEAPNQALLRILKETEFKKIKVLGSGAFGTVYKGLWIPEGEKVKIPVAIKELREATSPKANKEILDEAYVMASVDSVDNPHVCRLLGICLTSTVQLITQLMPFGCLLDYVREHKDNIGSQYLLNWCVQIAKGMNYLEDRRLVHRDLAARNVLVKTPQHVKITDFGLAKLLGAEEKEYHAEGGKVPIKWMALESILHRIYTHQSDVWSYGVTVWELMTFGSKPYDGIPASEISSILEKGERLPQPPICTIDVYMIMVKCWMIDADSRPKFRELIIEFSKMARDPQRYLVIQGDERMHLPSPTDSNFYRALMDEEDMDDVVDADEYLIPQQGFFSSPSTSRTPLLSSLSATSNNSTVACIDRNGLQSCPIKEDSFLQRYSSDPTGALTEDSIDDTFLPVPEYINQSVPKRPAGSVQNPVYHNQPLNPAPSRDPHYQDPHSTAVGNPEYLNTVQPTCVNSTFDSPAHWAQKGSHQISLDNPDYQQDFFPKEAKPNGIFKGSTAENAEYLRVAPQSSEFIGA
The experiment can be described thus: Inhibitor activity on EGFR-dependent cell growth (CellTiter-Glo, 72 h), Ba/F3 EGFR exon 20 SVD Ins. Particulars: read-out: BaF3 SVD IC50. In outline:
(§1)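 IC50s derive from a sigmoidal dose–response fit of CellTiter-Glo signal. The signal was normalised between […]-treated cells and cell-free medium. Ba/F3 mutant-EGFR cells, seeded at 400–800/well depending on the line, had 72 h of exposure to a 10-point, 3-fold compound series.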

Experiment [2] has as its target T3, EGFR exon 20 ASV Ins V769_D770 (Ba/F3 cells) (Homo sapiens, UniProt P00533, INS769ASV).
T3 construct: expressed in transfected cells; host or cells: Ba/F3 (murine pro-B cells), retroviral transduction, puromycin selection, IL3-independent pool
Description: Inhibitor activity on EGFR phosphorylation (pEGFR AlphaLISA, 2 h), Ba/F3 EGFR exon 20 ASV Ins. As to conditions: EGFR phosphorylation, AlphaLISA, 2 hours; read-out: ASV IC50 (pEGFR). An excerpt:
Example B. Inhibitor Activity on EGFR phosphorylation (pEGFR)
EGFR mutant Ba/F3 cells were generated by transduction with retrovirus containing vectors expressing EGFR L858R, EGFR exon 19del, EGFR L858R/C797S, EGFR exon 20 NPG Ins D770_N771, EGFR exon 20 ASV Ins V769_D770, or EGFR exon 20 SVD Ins D770_N771 genes along with a puromycin selection marker. Transduced cells are selected with puromycin for 7 days and are then be transferred into culture media without Interleukin 3 (IL3). Surviving cells are confirmed to express EGFR by Western blot and maintained as a pool. CUTO14 cells were obtained from Dr. Robert C. Doebele at the University of Colorado. The IC50 date are included in Table 6 and Table 7.
1.1 Cells are harvested from flask into cell culture medium and the cell number counted.
1.2 Cells are diluted with culture medium to the desired density and 40 μL of cell suspension is added into each well of 384-well cell culture plate and the seeding density is 50K cells/well (Ba/F3) or 12.5K cells/well (CUTO14).
2 Compound Preparation and Treatment
2.1 Test compounds are dissolved to 10 mM in a DMSO stock solution. 45 μL of stock solution is transferred to a 384 polypropylene plate (pp-plate). Perform 3-fold, 10-point dilution via transferring 15 μL compound into 30 μL DMSO using a TECAN (EVO200) liquid handler.
2.2 Spin plates at room temperature at 1,000 RPM for 1 minute.
2.3 Transfer 5 nL of diluted compound from compound source plate into the cell plate.
2.4 After compound treatment for 2 hours, perform pEGFR detection by AlphaLISA for compound treatment plates as described in “Detection” section.
3 Detection by pEGFR AlphaLISA (Perkin-Elmer)
3.1 Plates are removed from incubators and equilibrated at room temperature for 10 minutes, and media was removed
3.2 10 μL of lysis buffer is added and plates shaken at 600 rpm for 1 hr.
3.3 Prepare acceptor mix just before use and dispense 5 μL of acceptor mix to all the wells. Shake 350 rpm for Ihr in the dark
3.4 Prepare donor mix under low light conditions prior to use. Dispense 5 μL of donor mix to all the wells. Mix well on the shaker, seal and wrap in aluminum foil and incubate 1.5 hrs at room temperature in the dark
3.5 Transfer 18.5 μL mixture to OptiPlate 384, and read using an Envision. The IC50 date were included in Table 6 and Table 7.
Background: Alpha assays give light when donor and acceptor beads are brought close together.

The target of experiment [3] is T4, EGFR exon 20 FQEA Ins A763_V764 (Ba/F3 cells) (Homo sapiens, UniProt P00533, INS763FQEA).
T4 construct: expressed in transfected cells; host or cells: Ba/F3 (murine pro-B cells), retroviral transduction, puromycin selection, IL3-independent pool
T4 sequence (P00533 with tags, fused parts or gaps INS763FQEA): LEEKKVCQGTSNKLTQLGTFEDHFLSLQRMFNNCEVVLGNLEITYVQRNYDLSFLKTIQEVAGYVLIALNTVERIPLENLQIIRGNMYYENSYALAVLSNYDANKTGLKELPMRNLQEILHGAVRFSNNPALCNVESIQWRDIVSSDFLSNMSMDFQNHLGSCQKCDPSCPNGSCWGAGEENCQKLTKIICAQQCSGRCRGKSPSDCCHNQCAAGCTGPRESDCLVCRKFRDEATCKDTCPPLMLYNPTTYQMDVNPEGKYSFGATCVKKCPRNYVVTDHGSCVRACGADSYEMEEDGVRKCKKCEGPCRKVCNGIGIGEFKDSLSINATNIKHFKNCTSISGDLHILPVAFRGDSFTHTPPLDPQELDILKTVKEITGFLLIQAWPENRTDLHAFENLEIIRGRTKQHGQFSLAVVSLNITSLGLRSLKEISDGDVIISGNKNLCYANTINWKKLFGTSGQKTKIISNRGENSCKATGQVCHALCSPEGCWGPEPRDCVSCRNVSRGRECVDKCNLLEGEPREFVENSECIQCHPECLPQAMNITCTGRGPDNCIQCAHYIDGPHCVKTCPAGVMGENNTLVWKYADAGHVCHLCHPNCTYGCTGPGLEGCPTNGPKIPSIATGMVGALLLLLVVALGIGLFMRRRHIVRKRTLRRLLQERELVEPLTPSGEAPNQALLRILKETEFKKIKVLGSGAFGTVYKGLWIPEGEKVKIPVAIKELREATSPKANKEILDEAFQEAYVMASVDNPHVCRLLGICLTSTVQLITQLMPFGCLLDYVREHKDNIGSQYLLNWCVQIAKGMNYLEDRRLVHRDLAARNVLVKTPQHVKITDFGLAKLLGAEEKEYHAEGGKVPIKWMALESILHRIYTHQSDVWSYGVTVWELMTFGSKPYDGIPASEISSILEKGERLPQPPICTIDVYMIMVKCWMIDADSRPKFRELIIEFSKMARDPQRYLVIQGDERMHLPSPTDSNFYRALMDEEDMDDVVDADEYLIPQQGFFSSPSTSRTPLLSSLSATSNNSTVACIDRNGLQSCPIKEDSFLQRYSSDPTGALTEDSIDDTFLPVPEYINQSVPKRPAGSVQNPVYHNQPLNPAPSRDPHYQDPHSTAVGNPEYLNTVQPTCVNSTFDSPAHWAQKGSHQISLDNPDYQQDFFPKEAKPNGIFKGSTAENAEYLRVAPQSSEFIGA
The experiment can be described thus: Inhibitor activity on EGFR-dependent cell growth (CellTiter-Glo, 72 h), Ba/F3 EGFR exon 20 FQEA Ins. As to conditions: read-out: BaF3 FQEA IC50. In outline: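 72 h proliferation, Ba/F3 EGFR mutants (no IL3, puromycin-selected pools, EGFR confirmed by Western blot). Seeding of 400 L858R, 600 L858R/C797S and 800 exon 19del/FQEA cells per well. CellTiter-Glo used; controls were […] (high) and medium alone (low).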

Experiment [4] deals with T3, EGFR exon 20 ASV Ins V769_D770 (Ba/F3 cells). Description: Inhibitor activity on EGFR-dependent cell growth (CellTiter-Glo, 72 h), Ba/F3 EGFR exon 20 ASV Ins. As to conditions: read-out: BaF3 ASV IC50. In outline:
as §1

The target in experiment [5] is T5, EGFR exon 20 NPG Ins D770_N771 (Ba/F3 cells) (Homo sapiens, UniProt P00533, INS770NPG).
T5 construct: expressed in transfected cells; host or cells: Ba/F3 (murine pro-B cells), retroviral transduction, puromycin selection, IL3-independent pool
The experiment can be described thus: Inhibitor activity on EGFR-dependent cell growth (CellTiter-Glo, 72 h), Ba/F3 EGFR exon 20 NPG Ins. As to conditions: read-out: BaF3 NPG IC50. In outline:
as §1

T3 sequence (P00533 with tags, fused parts or gaps INS769ASV): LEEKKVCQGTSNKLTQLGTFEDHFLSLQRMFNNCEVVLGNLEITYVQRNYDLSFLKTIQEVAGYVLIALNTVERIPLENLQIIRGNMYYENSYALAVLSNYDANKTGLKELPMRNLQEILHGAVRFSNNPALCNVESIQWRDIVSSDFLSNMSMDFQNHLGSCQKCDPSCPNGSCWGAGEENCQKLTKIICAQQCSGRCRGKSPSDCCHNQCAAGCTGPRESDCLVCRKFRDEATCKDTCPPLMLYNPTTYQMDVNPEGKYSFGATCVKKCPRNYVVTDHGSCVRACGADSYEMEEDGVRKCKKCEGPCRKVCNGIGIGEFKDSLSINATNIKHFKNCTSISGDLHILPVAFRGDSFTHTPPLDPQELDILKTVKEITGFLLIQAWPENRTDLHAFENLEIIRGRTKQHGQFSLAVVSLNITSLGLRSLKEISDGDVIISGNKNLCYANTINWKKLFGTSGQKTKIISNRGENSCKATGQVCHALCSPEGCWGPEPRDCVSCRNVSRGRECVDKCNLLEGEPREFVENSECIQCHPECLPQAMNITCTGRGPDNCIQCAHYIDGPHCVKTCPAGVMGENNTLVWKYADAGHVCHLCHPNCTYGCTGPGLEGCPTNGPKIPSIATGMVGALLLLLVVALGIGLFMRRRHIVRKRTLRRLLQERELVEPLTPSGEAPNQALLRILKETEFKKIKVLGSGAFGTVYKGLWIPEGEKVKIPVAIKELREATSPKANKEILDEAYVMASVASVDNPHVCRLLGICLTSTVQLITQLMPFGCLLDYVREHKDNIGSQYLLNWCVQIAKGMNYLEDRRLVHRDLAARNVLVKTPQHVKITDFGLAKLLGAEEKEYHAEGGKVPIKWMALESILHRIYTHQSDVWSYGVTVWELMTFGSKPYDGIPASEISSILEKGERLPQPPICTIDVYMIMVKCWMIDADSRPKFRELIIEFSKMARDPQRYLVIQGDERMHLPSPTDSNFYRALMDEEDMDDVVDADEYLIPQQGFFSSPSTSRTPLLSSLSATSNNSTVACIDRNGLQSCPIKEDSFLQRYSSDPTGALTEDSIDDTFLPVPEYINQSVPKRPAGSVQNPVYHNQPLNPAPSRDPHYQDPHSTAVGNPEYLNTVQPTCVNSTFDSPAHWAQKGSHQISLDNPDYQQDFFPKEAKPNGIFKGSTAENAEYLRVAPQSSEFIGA

The pIC50 is the IC50 on a negative log10 scale, so that one unit is a factor of ten. As for `COc1c(Nc2c(-c3ccnc(N)n3)[nH]c3c2C(=O)NCC3)cccc1C(C)=O` [compound 728, 3-[(3-acetyl-2-methoxyphenyl)amino]-2-(2-aminopyrimidin-4-yl)-1H,5H,6H,7H-pyrrolo[3,2-c]pyridin-4-one], the pIC50 (at EGFR WT (Ba/F3 cells); in experiment [1]; in experiment [2]; in experiment [3]; in experiment [4]) was less than 6.00 in each case.
On to `COc1c(Cl)cccc1Nc1c(-c2ccnc(N)n2)[nH]c2c1C(=O)N[C@@H](C)C2` [187a], for which the negative-log IC50 (pIC50) was less than 6.00 on EGFR WT (Ba/F3 cells); 6.00 to 7.00 in experiment [1]; more than 7.00 in experiment [2]; 6.00 to 7.00 in experiment [3]; 6.00 to 7.00 in experiment [4].
In the case of `CC#Cc1cccc(Nc2c(-c3ccnc(N)n3)[nH]c3c2C(=O)NCC3)c1OC` [Compound 704, 2-(2-aminopyrimidin-4-yl)-3-[[2-methoxy-3-(prop-1-yn-1-yl)phenyl]amino]-1H,5H,6H,7H-pyrrolo[3,2-c]pyridin-4-one], the pIC50 (on EGFR WT (Ba/F3 cells); in experiment [1]; in experiment [2]; in experiment [3]; in experiment [4]) was less than 6.00 in each case.
As to `COc1c(F)cccc1Nc1c(-c2ccncn2)[nH]c2c1C(=O)NCC2` [compound 244], the pIC50 on EGFR WT (Ba/F3 cells) was less than 6.00; in experiment [1], less than 6.00; in experiment [2], 6.00 to 7.00; in experiment [3], less than 6.00; in experiment [4], less than 6.00.
As for `Nc1nccc(-c2[nH]c3c(c2Nc2cccc4ccoc24)C(=O)NCC3)n1` [compound 307], the pIC50 on EGFR WT (Ba/F3 cells) was less than 6.00; in experiment [1], less than 6.00; in experiment [2], 6.00 to 7.00; in experiment [3] it was less than 6.00; in experiment [4], less than 6.00.
In the case of `Nc1nccc(-c2[nH]c3c(c2Nc2ccccc2Cl)C(=O)NCC3)n1` [compound 194], the pIC50 was 6.00 to 7.00 on EGFR WT (Ba/F3 cells), more than 7.00 in experiment [2] and 6.00 to 7.00 in experiment [3].
As for `COc1c(F)cccc1Nc1c(-c2ccnc(C)c2)[nH]c2c1C(=O)NCC2` [compound 261], the pIC50 at EGFR WT (Ba/F3 cells) is less than 6.00; in experiment [1] it was less than 6.00; in experiment [2], 6.00 to 7.00; in experiment [3], less than 6.00; in experiment [4], less than 6.00.
As to `N#Cc1c(F)cccc1Nc1c(-c2ccnc(N)n2)[nH]c2c1C(=O)NCC2` [compound 200], the pIC50 on EGFR WT (Ba/F3 cells) is less than 6.00; in experiment [1] it was less than 6.00; in experiment [2], 6.00 to 7.00; in experiment [3], less than 6.00; in experiment [4], less than 6.00.
For the molecule `COc1c(F)cc(F)cc1Nc1c(-c2ccnc(N)n2)[nH]c2c1C(=O)NCC2` [compound 304], the pIC50 at EGFR WT (Ba/F3 cells) is less than 6.00; in experiment [1], 6.00 to 7.00; in experiment [2], more than 7.00; in experiment [3], 6.00 to 7.00; in experiment [4] it was 6.00 to 7.00.
Turning to `COc1c(Cl)cccc1Nc1c(-c2ccnc(NCc3ccccc3)n2)[nH]c2c1C(=O)NCC2` [compound 209], the pIC50 on EGFR WT (Ba/F3 cells) is less than 6.00; in experiment [1] it was 6.00 to 7.00; in experiment [2] it was 6.00 to 7.00; in experiment [3], less than 6.00; in experiment [4] it was 6.00 to 7.00.
Take `COc1c(Cl)cccc1Nc1c(-c2ccnc(N)n2)[nH]c2c1C(=O)NC[C@H]2C` [186b]: the pIC50 is 6.00 to 7.00 at EGFR WT (Ba/F3 cells); more than 7.00 in experiment [1]; more than 7.00 in experiment [2]; 6.00 to 7.00 in experiment [3]; more than 7.00 in experiment [4].
With `Nc1nccc(-c2[nH]c3c(c2Nc2cccc4scnc24)C(=O)NCC3)n1` [compound 718, 2-(2-aminopyrimidin-4-yl)-3-(1,3-benzothiazol-4-ylamino)-1H,5H,6H,7H-pyrrolo[3,2-c]pyridin-4-one; trifluoroacetic acid], the pIC50 at EGFR WT (Ba/F3 cells) was less than 6.00; in experiment [1], less than 6.00; in experiment [2], 6.00 to 7.00; in experiment [3], less than 6.00; in experiment [4] it was less than 6.00.
Turning to `COc1cc(Cl)cc(Nc2c(-c3ccnc(N)n3)[nH]c3c2C(=O)NCC3)c1` [compound 302], the pIC50 (at EGFR WT (Ba/F3 cells); in experiment [1]; in experiment [2]; in experiment [3]; in experiment [4]) was less than 6.00 throughout.
`COc1cccc(Nc2c(-c3ccnc(N)n3)[nH]c3c2C(=O)NCC3)c1Cl` [compound 301]: the pIC50 (on EGFR WT (Ba/F3 cells); in experiment [1]; in experiment [2]; in experiment [3]; in experiment [4]) was less than 6.00 throughout.
With `Cc1ccc(F)cc1Nc1c(-c2ccnc(N)n2)[nH]c2c1C(=O)NCC2` [compound 196], the pIC50 is less than 6.00 at EGFR WT (Ba/F3 cells); less than 6.00 in experiment [1]; 6.00 to 7.00 in experiment [2]; 6.00 to 7.00 in experiment [3]; less than 6.00 in experiment [4].
`CCOc1c(Cl)cccc1Nc1c(-c2ccnc(N)n2)[nH]c2c1C(=O)NCC2` [Compound 700, 2-(2-aminopyrimidin-4-yl)-3-[(3-chloro-2-ethoxyphenyl)amino]-1H,5H,6H,7H-pyrrolo[3,2-c]pyridin-4-one; trifluoroacetic acid]: the pIC50 on EGFR WT (Ba/F3 cells) was less than 6.00; in experiment [2], 6.00 to 7.00; in experiment [3], less than 6.00.
With `Nc1nccc(-c2[nH]c3c(c2Nc2ccc(Cl)cc2)C(=O)NCC3)n1` [compound 192], the pIC50 (on EGFR WT (Ba/F3 cells); in experiment [2]; in experiment [3]) was less than 6.00 in each case.
For the molecule `Nc1nccc(-c2[nH]c3c(c2Nc2cccc(Cl)c2)C(=O)NCC3)n1` [compound 193], the negative logarithm of the IC50 (pIC50) was 6.00 to 7.00 on EGFR WT (Ba/F3 cells), more than 7.00 in experiment [2] and 6.00 to 7.00 in experiment [3].
Regarding `COc1c(C)cccc1Nc1c(-c2ccnc(N)n2)[nH]c2c1C(=O)NCC2` [compound 305], the pIC50 at EGFR WT (Ba/F3 cells) was less than 6.00; in experiment [2], more than 7.00; in experiment [3], 6.00 to 7.00.
For `Cc1c(F)cccc1Nc1c(-c2nc(N)ncc2F)[nH]c2c1C(=O)NCC2` [Compound 689, 2-(2-amino-5-fluoropyrimidin-4-yl)-3-[(3-fluoro-2-methylphenyl)amino]-1H,5H,6H,7H-pyrrolo[3,2-c]pyridin-4-one], the pIC50 in experiment [1] was less than 6.00; in experiment [2] it was 6.00 to 7.00; in experiment [3], 6.00 to 7.00; in experiment [4] it was less than 6.00.
`CCOc1ccc2nccc(-c3[nH]c4c(c3Nc3cccc(Cl)c3OC)C(=O)NCC4)c2n1` [compound 761, 3-[(3-chloro-2-methoxyphenyl)amino]-2-(6-ethoxy-1,5-naphthyridin-4-yl)-1H,5H,6H,7H-pyrrolo[3,2-c]pyridin-4-one]: the negative logarithm of the IC50 (pIC50) (in experiment [5]; at EGFR WT (Ba/F3 cells); in experiment [1]; in experiment [3]; in experiment [4]) was more than 7.00 each time.
